# Experimental data as given in patent US20260258048A1, “LACTAM-CONTAINING IMIDAZOPYRIDAZINE IL-17 INHIBITOR COMPOUNDS” (Janssen Pharmaceutica NV, priority 2023, published 2026).
# How the values were obtained:
# [1] = target: IL-17A(FLAG-tagged): IL-17RA(His-tagged) (Homo sapiens, UniProt Q16552, K93Q); assay: IL-17A(FLAG-tagged): IL-17RA(His-tagged) binding disruption Eu-HTRF assay; details: class of the average IC50 where tested more than once
# How it was run: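 Compound (22-point, 2-fold series) was pre-incubated 1 h at rt with FLAG-IL-17A, added as a 2× solution (1 μM). A 2× mix of C-terminal 10×His IL-17RA, Eu-anti-FLAG donor and D2-anti-His acceptor in PBS/0.01% Triton X-100/200 mM KF was then added for 2 h at rt. The 665/615 nm ratio was fitted to one-site competition for IC50.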
# [2] = test system: IL-17A-induced G-CSF production in human normal keratinocyte (NHK); assay: NHK assay: IL-17A-induced G-CSF production in normal human keratinocytes; type: cell-based; details: IL-17A 5 ng/mL, 24 h, class of the average IC50 where tested more than once
# How it was run: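 Adult keratinocytes at 3000-4000 cells/well; recombinant human IL-17A pre-incubated 1 h at rt with titrated compound, then added to cells (final 5 ng/mL IL-17A, 0.2% DMSO, 5% FBS) for 24 h at 37 °C. Supernatant G-CSF quantified by HTRF against a standard curve to give IC50; viability checked by CellTiter-Glo versus DMSO.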
# Chain of UniProt Q16552 (Q16552 with tags, fused parts or gaps K93Q): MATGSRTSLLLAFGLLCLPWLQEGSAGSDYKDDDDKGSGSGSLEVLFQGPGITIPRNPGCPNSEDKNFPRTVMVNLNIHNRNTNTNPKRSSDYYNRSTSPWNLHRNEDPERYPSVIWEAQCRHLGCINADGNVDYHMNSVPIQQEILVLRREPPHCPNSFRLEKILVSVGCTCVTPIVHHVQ
structure (smiles),measurement,setting,value
"Cc1nonc1C(=O)N[C@H](c1cn2ncc(CC3C[C@@H](C(F)(F)F)NC3=O)cc2n1)C1CCC(F)(F)CC1 (single isomer, unassigned) [Example 10, N—[(S)-(4,4-Difluorocyclohexyl)-[7-[[(3R*,5S)-2-oxo-5-(trifluoromethyl)pyrrolidin-3-yl]methyl]imidazo[1,2-b]pyridazin-2-yl]methyl]-4-methyl-1,2,5-oxadiazole-3-carboxamide]",IC50,[1],> 4000 nM
same,IC50,[2],> 4 µM
"O=C(N[C@H](c1cn2ncc([C@H]3C[C@]34C[C@@H](C(F)(F)F)NC4=O)cc2n1)C1CCC(F)(F)CC1)c1nonc1C1CC1 (single isomer, unassigned) [Example 40]",IC50,[1],> 4000 nM
same,IC50,"[2]; Homo sapiens, Keratinocyte",> 4 µM
"CC1(Cc2cnn3cc([C@@H](NC(=O)c4nonc4C4CC4)C4CCC(F)(F)CC4)nc3c2)CCCNC1=O (single isomer, unassigned) [Example 28, 4-Cyclopropyl-N—((S)-(4,4-difluorocyclohexyl)(7-(((S*)-3-methyl-2-oxopiperidin-3-yl)methyl)imidazo[1,2-b]pyridazin-2-yl)methyl)-1,2,5-oxadiazole-3-carboxamide]",IC50,[1],< 400 nM
same,IC50,[2],0.4 to 4 µM
"O=C(N[C@H](c1cn2ncc(CC3C(=O)NCC3C(F)(F)F)cc2n1)C1CCC(F)(F)CC1)c1nonc1C1CC1 (single isomer, unassigned) [Example 50]",IC50,[1],400 to 4000 nM
same,IC50,"[2]; Homo sapiens, Keratinocyte",> 4 µM
O=C(N[C@H](c1cn2ncc([C@@H](O)[C@H]3C[C@@H](C(F)(F)F)NC3=O)cc2n1)C1CCC(F)(F)CC1)c1nonc1C1CC1 (relative stereo) [Example 73],IC50,[1],400 to 4000 nM
same,IC50,"[2]; Homo sapiens, Keratinocyte",0.4 to 4 µM
"C[C@H]1C[C@H](Cc2cnn3cc([C@@H](NC(=O)c4nonc4C4CC4)C4CCC(F)(F)CC4)nc3c2)C(=O)N1 (relative stereo) [Example 83, 4-Cyclopropyl-N—((S)-(4,4-difluorocyclohexyl)(7-(((3S*,5S*)-5-methyl-2-oxopyrrolidin-3-yl)methyl)imidazo[1,2-b]pyridazin-2-yl)methyl)-1,2,5-oxadiazole-3-carboxamide]",IC50,[1],< 400 nM
same,IC50,"[2]; Homo sapiens, Keratinocyte",< 0.4 µM
"C[C@@H](c1cnn2cc([C@@H](NC(=O)c3nonc3C3CC3)C3CCC(F)(F)CC3)nc2c1)[C@@H]1C[C@@H](C(F)(F)F)NC1=O (single isomer, unassigned) [Example 80, 4-Cyclopropyl-N—((S)-(4,4-difluorocyclohexyl(7-((R*)-1-((3S*,5S)-2-oxo-5-(trifluoromethyl)pyrrolidin-3-yl)ethyl)imidazo[1,2-b]pyridazin-2-yl)methyl)-1,2,5-oxadiazole-3-carboxamide]",IC50,[1],400 to 4000 nM
same,IC50,"[2]; Homo sapiens, Keratinocyte",0.4 to 4 µM
"COc1nonc1C(=O)N[C@@H](CCC(C)(C)C(F)(F)F)c1cn2ncc(CC3C[C@@H](C(F)(F)F)NC3=O)cc2n1 (single isomer, unassigned) [Example 5, 4-Methoxy-N-[(1S)-5,5,5-trifluoro-4,4-dimethyl-1-[7-[[(3R*,5S)-2-oxo-5-(trifluoromethyl)pyrrolidin-3-yl]methyl]imidazo[1,2-b]pyridazin-2-yl]pentyl]-1,2,5-oxadiazole-3-carboxamide]",IC50,[1],> 4000 nM
same,IC50,[2],> 4 µM
"C[C@@H](c1cnn2cc([C@@H](NC(=O)c3nonc3C3CC3)C3CCC(F)(F)CC3)nc2c1)[C@H]1C[C@@H](C(F)(F)F)NC1=O (relative stereo) [Example 78, 4-Cyclopropyl-N—((S)-(4,4-difluorocyclohexyl)(7-((R*)-1-((3R*,5S)-2-oxo-5-(trifluoromethyl)pyrrolidin-3-yl)ethyl)imidazo[1,2-b]pyridazin-2-yl)methyl)-1,2,5-oxadiazole-3-carboxamide]",IC50,[1],> 4000 nM
same,IC50,"[2]; Homo sapiens, Keratinocyte",> 4 µM
"O=C(N[C@H](c1cn2ncc(CC3CCCCNC3=O)cc2n1)C1CCC(F)(F)CC1)c1nonc1C1CC1 (single isomer, unassigned) [Example 26, 4-Cyclopropyl-N—((S)-(4,4-difluorocyclohexyl)(7-(((S*)-2-oxoazepan-3-yl)methyl)imidazo[1,2-b]pyridazin-2-yl)methyl)-1,2,5-oxadiazole-3-carboxamide]",IC50,[1],400 to 4000 nM
same,IC50,[2],> 4 µM
O=C(N[C@H](c1cn2ncc(C[C@@]3(O)C[C@@H](C(F)(F)F)NC3=O)cc2n1)C1CCC(F)(F)CC1)c1nonc1C1CC1 [Example 36],IC50,[1],< 400 nM
same,IC50,"[2]; Homo sapiens, Keratinocyte",< 0.4 µM
"N#CCC1(Cc2cnn3cc([C@@H](NC(=O)c4nonc4C4CC4)C4CCC(F)(F)CC4)nc3c2)C[C@@H](C(F)(F)F)NC1=O (single isomer, unassigned) [Example 104, N—((S)-(7-(((3S*,5S)-3-(Cyanomethyl)-2-oxo-5-(trifluoromethyl)pyrrolidin-3-yl)methyl)imidazo[1,2-b]pyridazin-2-yl)(4,4-difluorocyclohexyl)methyl)-4-cyclopropyl-1,2,5-oxadiazole-3-carboxamide]",IC50,[1],< 400 nM
same,IC50,"[2]; Homo sapiens, Keratinocyte",< 0.4 µM
"O=C(N[C@H](c1cn2ncc(C[C@H]3C(=O)NC[C@@H]3C(F)(F)F)cc2n1)C1CCC(F)(F)CC1)c1nonc1C1CC1 (relative stereo) [Example 101, 4-Cyclopropyl-N—[(S)-(4,4-difluorocyclohexyl)-[7-[[(3R*,4R*)-2-oxo-4-(trifluoromethyl)pyrrolidin-3-yl]methyl]imidazo[1,2-b]pyridazin-2-yl]methyl]-1,2,5-oxadiazole-3-carboxamide]",IC50,[1],400 to 4000 nM
same,IC50,"[2]; Homo sapiens, Keratinocyte",0.4 to 4 µM
"O=C(N[C@H](c1cn2ncc(C[C@@H]3C(=O)NC[C@H]3C(F)(F)F)cc2n1)C1CCC(F)(F)CC1)c1nonc1C1CC1 (relative stereo) [Example 100, 4-Cyclopropyl-N—[(S)-(4,4-difluorocyclohexyl)-[7-[[(3S*,4S*)-2-oxo-4-(trifluoromethyl)pyrrolidin-3-yl]methyl]imidazo[1,2-b]pyridazin-2-yl]methyl]-1,2,5-oxadiazole-3-carboxamide]",IC50,[1],400 to 4000 nM
same,IC50,"[2]; Homo sapiens, Keratinocyte",> 4 µM
"O=C(N[C@H](c1cn2ncc(C[C@@]34CCC[C@H](C3)NC4=O)cc2n1)C1CCC(F)(F)CC1)c1nonc1C1CC1 (single isomer, unassigned) [Example 11]",IC50,[1],< 400 nM
same,IC50,"[2]; Homo sapiens, Keratinocyte",< 0.4 µM
"O=C(N[C@H](c1cn2ncc(C[C@@H]3C[C@@H](C(F)(F)F)NC3=O)cc2n1)C1CCC(F)(F)CC1)c1nonc1C1CC1 (relative stereo) [Example 70, 4-Cyclopropyl-N—((S)-(4,4-difluorocyclohexyl)(7-(((3R*,5S*)-2-oxo-5-(trifluoromethyl)pyrrolidin-3-yl)methyl)imidazo[1,2-b]pyridazin-2-yl)methyl)-1,2,5-oxadiazole-3-carboxamide]",IC50,[1],< 400 nM
same,IC50,"[2]; Homo sapiens, Keratinocyte",< 0.4 µM
"O=C(N[C@H](c1cn2ncc([C@H](O)[C@@H]3C[C@H](C(F)(F)F)NC3=O)cc2n1)C1CCC(F)(F)CC1)c1nonc1C1CC1 (relative stereo) [Example 64, 4-Cyclopropyl-N—((S)-(4,4-difluorocyclohexyl)(7-((R*)-hydroxy((3S*,5R*)-2-oxo-5-(trifluoromethyl)pyrrolidin-3-yl)methyl)imidazo[1,2-b]pyridazin-2-yl)methyl)-1,2,5-oxadiazole-3-carboxamide]",IC50,[1],400 to 4000 nM
same,IC50,"[2]; Homo sapiens, Keratinocyte",< 0.4 µM
"CC[C@@H]1C[C@H](Cc2cnn3cc([C@@H](NC(=O)c4nonc4C4CC4)C4CCC(F)(F)CC4)nc3c2)C(=O)N1 (relative stereo) [Example 89, 4-Cyclopropyl-N—[(S)-(4,4-difluorocyclohexyl)-[7-[[(3S*,5R*)-5-ethyl-2-oxo-pyrrolidin-3-yl]methyl]imidazo[1,2-b]pyridazin-2-yl]methyl]-1,2,5-oxadiazole-3-carboxamide]",IC50,[1],< 400 nM
same,IC50,"[2]; Homo sapiens, Keratinocyte",> 4 µM
"O=C(N[C@H](c1cn2ncc([C@@H]3C[C@]34C[C@@H](C(F)(F)F)NC4=O)cc2n1)C1CCC(F)(F)CC1)c1nonc1C1CC1 (relative stereo) [Example 39, 4-Cyclopropyl-N—((S)-(4,4-difluorocyclohexyl)(7-((S*,3S*,6S)-4-oxo-6-(trifluoromethyl)-5-azaspiro[2.4]heptan-1-yl)imidazo[1,2-b]pyridazin-2-yl)methyl)-1,2,5-oxadiazole-3-carboxamide]",IC50,[1],> 4000 nM
same,IC50,"[2]; Homo sapiens, Keratinocyte",> 4 µM
"CC(C)[C@@H]1C[C@H](Cc2cnn3cc([C@@H](NC(=O)c4nonc4C4CC4)C4CCC(F)(F)CC4)nc3c2)C(=O)N1 (relative stereo) [Example 96, 4-Cyclopropyl-N—[(S)-(4,4-difluorocyclohexyl)-[7-[[(3S*,5S*)-5-isopropyl-2-oxo-pyrrolidin-3-yl]methyl]imidazo[1,2-b]pyridazin-2-yl]methyl]-1,2,5-oxadiazole-3-carboxamide]",IC50,[1],> 4000 nM
same,IC50,"[2]; Homo sapiens, Keratinocyte",> 4 µM
"O=C(N[C@H](c1cn2ncc(C[C@H]3C[C@H](C(F)(F)F)NC3=O)cc2n1)C1CCC(F)(F)CC1)c1nonc1C1CC1 (relative stereo) [Example 69, 4-Cyclopropyl-N—((S)-(4,4-difluorocyclohexyl)(7-(((3S*,5R*)-2-oxo-5-(trifluoromethyl)pyrrolidin-3-yl)methyl)imidazo[1,2-b]pyridazin-2-yl)methyl)-1,2,5-oxadiazole-3-carboxamide]",IC50,[1],400 to 4000 nM
same,IC50,"[2]; Homo sapiens, Keratinocyte",0.4 to 4 µM
"C[C@@H]1C[C@H](Cc2cnn3cc([C@@H](NC(=O)c4nonc4C4CC4)C4CCC(F)(F)CC4)nc3c2)C(=O)N1 (relative stereo) [Example 85, 4-Cyclopropyl-N—((S)-(4,4-difluorocyclohexyl(7-(((3S*,5R*)-5-methyl-2-oxopyrrolidin-3-yl)methyl)imidazo[1,2-b]pyridazin-2-yl)methyl)-1,2,5-oxadiazole-3-carboxamide]",IC50,[1],400 to 4000 nM
same,IC50,"[2]; Homo sapiens, Keratinocyte",> 4 µM
